Target: T1, Human Aryl Hydrocarbon Receptor (AHR) (Homo sapiens, UniProt P35869)
T1 construct: purchased INDIGO Bioscience IB06001-32; host or cells: AHR Reporter Cell (proprietary kit cells)
T1 sequence (P35869 11-848): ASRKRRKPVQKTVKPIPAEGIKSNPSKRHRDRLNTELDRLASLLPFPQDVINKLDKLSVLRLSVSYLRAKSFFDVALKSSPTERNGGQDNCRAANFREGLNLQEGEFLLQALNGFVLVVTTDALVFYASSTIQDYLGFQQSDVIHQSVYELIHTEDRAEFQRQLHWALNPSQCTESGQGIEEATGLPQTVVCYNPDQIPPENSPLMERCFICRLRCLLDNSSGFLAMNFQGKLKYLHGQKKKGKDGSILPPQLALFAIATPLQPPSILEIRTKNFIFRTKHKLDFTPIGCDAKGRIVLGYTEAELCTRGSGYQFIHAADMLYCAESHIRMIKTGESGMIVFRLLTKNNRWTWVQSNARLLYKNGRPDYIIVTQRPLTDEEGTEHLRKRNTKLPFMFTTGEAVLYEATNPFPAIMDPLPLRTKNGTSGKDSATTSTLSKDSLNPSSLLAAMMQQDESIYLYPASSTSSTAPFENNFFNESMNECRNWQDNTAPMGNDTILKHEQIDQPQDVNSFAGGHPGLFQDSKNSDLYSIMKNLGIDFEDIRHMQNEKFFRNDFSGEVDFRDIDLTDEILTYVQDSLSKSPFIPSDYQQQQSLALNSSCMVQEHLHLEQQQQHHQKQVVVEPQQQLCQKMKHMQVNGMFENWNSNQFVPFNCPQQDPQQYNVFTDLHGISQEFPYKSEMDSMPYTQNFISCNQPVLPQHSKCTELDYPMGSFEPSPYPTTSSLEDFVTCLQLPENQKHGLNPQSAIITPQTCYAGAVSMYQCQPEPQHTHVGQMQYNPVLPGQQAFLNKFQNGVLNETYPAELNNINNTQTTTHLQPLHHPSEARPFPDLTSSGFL
Test: AHR agonist reporter assay in human cell line (INDIGO luciferase reporter);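 also: firefly luciferase luminescence read on a plate reader, values normalized against positive and negative controls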
Format: cell-based
Conditions: reporter cells, 24 hours incubation, second line of cell; read-out: AHR abEC50
Description: The AHR reporter assay was performed following the protocol of the Human Aryl Hydrocarbon Receptor (AHR) Reporter Assay System (INDIGO Bioscience, #IB06001-32). AHR Reporter Cell was thawed and pre-incubated in Cell Recovery Medium (CRM) for 6 hours. […] Following 24 hours incubation, the media was removed and Luciferase Detection Reagent (LDR) added. The firefly luciferase activity was quantified using a plate reader. Results were normalized by positive and negative controls.

CC(C)c1c(O)cc(-c2cc3ccccc3nc2C#N)cc1O [Compound 28] and CC(C)c1ncc(-c2cc3ccccc3nc2C#N)cc1O [Compound 79] cannot be ordered by EC50: > 0.1 µM for the first, > 0.1 µM for the second.

CC(C)c1ncc(-c2nc3ccccc3[nH]2)cc1N [Compound 134] and CC(C)c1ncc(-c2nc3ccccc3[nH]2)cc1O [Compound 101] are within 1.5-fold of each other in EC50: 0.101 µM for the first, 0.0944 µM for the second.

COc1cc(-c2cnc(C(C)C)c(O)c2)cc2cccnc12 [Compound 69] and CC(C)c1ncc(-c2cc(F)c3ncccc3c2)cc1O [Compound 57] cannot be ordered by EC50: > 0.1 µM for the first, > 0.1 µM for the second.

CC(C)c1ncc(-c2ccc3nccc(C#N)c3c2)cc1O [Compound 81] and CC(C)c1ncc(-c2ccc3nccc(F)c3c2)cc1O [Compound 59] cannot be ordered by EC50: > 0.1 µM for the first, > 0.1 µM for the second.

CC(C)c1c(O)cc(-c2cc(F)c3ncccc3c2)cc1O [Compound 6] and COc1cc(-c2cc(O)c(C(C)C)c(O)c2)cc2cccnc12 [Compound 18] cannot be ordered by EC50: 0.109 µM for the first, > 0.1 µM for the second.

COc1ccc2ccc(-c3cc(O)c(C(C)C)c(O)c3)cc2n1 [Compound 27] and COc1ccc2ccc(-c3cnc(C(C)C)c(O)c3)cc2n1 [Compound 78] cannot be ordered by EC50: > 0.1 µM for the first, > 0.1 µM for the second.

CC(C)c1ncc(-c2cc3cccnc3cc2F)cc1O [Compound 58] and COc1cc2ncccc2cc1-c1cnc(C(C)C)c(O)c1 [Compound 72] cannot be ordered by EC50: > 0.1 µM for the first, > 0.1 µM for the second.

Compared with CC(C)c1c(O)cc(-c2ccc3cc(F)ccc3n2)cc1O [Compound 9], CC(C)c1ncc(-c2ccc3cc(F)ccc3n2)cc1O [Compound 60] is higher in EC50: 0.0209 µM for the first, > 0.1 µM for the second.

CC(C)c1c(O)cc(-c2ccnc3ccc(F)cc23)cc1O [Compound 4] and CC(C)c1c(O)cc(-c2ccc3nccc(F)c3c2)cc1O [Compound 8] cannot be ordered by EC50: > 0.1 µM for the first, > 0.1 µM for the second.

Compared with FC(F)(F)c1ccc(Nc2nccc(-c3cccc(Cl)c3)n2)cc1 [Reference, reference compound], CC(C)c1ncc(-c2ccc(F)c3ccc(C(F)(F)F)nc23)cc1O [Compound 64] is higher in EC50: 0.0171 µM for the first, > 0.1 µM for the second.

CC(C)c1c(O)cc(-c2cc(F)c3ncccc3c2F)cc1O [Compound 12] and CC(C)c1c(O)cc(-c2ccnc3c(F)cccc23)cc1O [Compound 3] cannot be ordered by EC50: > 0.1 µM for the first, > 0.1 µM for the second.

CC(C)c1ncc(-c2ccc3ncccc3c2F)cc1O [Compound 61] and CC(C)c1ncc(-c2cccc3ncccc23)cc1O [Compound 71] cannot be ordered by EC50: > 0.1 µM for the first, > 0.1 µM for the second.

CC(C)c1onc(/C=C/c2ccccc2)c1O [Compound 109, 5-isopropyl-3-[(E)-2-phenylethenyl]-1,2-oxazol-4-ol] and CC(C)n1c(O)cc(/C=C/c2ccccc2)cc1=O [Compound 105, (E)-6-hydroxy-1-isopropyl-4-styrylpyridin-2(1H)-one] cannot be ordered by EC50: > 0.1 µM for the first, > 0.4 µM for the second.

CC(C)c1c(O)cc(-c2cnc3cccc(O)c3c2)cc1O [Compound 23] and CC(C)c1c(O)cc(-c2cnc3ccc(F)cc3c2)cc1O [Compound 11] cannot be ordered by EC50: > 0.1 µM for the first, > 0.1 µM for the second.

CC(C)c1c(O)cc(Sc2ccccc2)cc1O [Compound 129, 2-isopropyl-5-(phenylthio) benzene-1,3-diol] and CC(C)c1c(O)cc(Oc2ccccc2)cc1O [Compound 132, 2-isopropyl-5-phenoxybenzene-1,3-diol] cannot be ordered by EC50: > 0.4 µM for the first, > 0.4 µM for the second.

CC(C)c1c(O)cc(-c2cncc3ccc(F)cc23)cc1O [Compound 32] and CC(C)c1ncc(-c2cncc3ccc(F)cc23)cc1O [Compound 83] cannot be ordered by EC50: > 0.1 µM for the first, > 0.1 µM for the second.

First: CC(=O)c1c(O)cc(/C=C/c2ccccc2)cc1O [Compound 108]
Second: COc1cc(/C=C/c2ccccc2)cc(O)c1C(C)C [Compound 137]
The EC50 of the first is higher: 0.143 µM for the first, < 0.008 µM for the second. The second is the more potent here.

Going from CC(C)c1ncc(-c2cc(C(F)(F)F)c3cc(F)ccc3n2)cc1O [Compound 52] to CC(C)c1c(O)cc(-c2cc(C(F)(F)F)c3cc(F)ccc3n2)cc1O [Compound 1], the EC50 falls from > 0.1 µM to 0.0252 µM. The second is the more potent here.

CC(C)c1c(O)cc(S(=O)(=O)c2ccccc2)cc1O [Compound 131, 2-isopropyl-5-(phenylsulfonyl)benzene-1,3-diol] and CC(C)c1c(O)cc([S+]([O-])c2ccccc2)cc1O (centres unmarked) [Compound 130, 2-isopropyl-5-(phenylsulfinyl) benzene-1,3-diol] cannot be ordered by EC50: > 0.4 µM for the first, > 0.4 µM for the second.

Cc1ccnc2c(-c3cnc(C(C)C)c(O)c3)ccnc12 [Compound 94] and CC(C)c1ncc(-c2ccnc3c(F)cccc23)cc1O [Compound 54] cannot be ordered by EC50: > 0.1 µM for the first, > 0.1 µM for the second.

CC(C)c1c(O)cc(-c2cc(F)c3nccnc3c2)cc1O [Compound 36] and CC(C)c1c(O)cc(-c2ccc3nccnc3c2)cc1O [Compound 40] cannot be ordered by EC50: > 0.1 µM for the first, > 0.1 µM for the second.

CC(C)c1c(O)cc(-c2ccc3nccc(C#N)c3c2)cc1O [Compound 30] and CNc1ccnc2ccc(-c3cc(O)c(C(C)C)c(O)c3)cc12 [Compound 16] cannot be ordered by EC50: > 0.1 µM for the first, > 0.1 µM for the second.

CC(C)c1nc2c(cc1O)CC(c1ccccc1)O2 (centres unmarked) [Compound 127, 6-isopropyl-2-phenyl-2H,3H-furo[2,3-b]pyridin-5-ol] and CC(C)c1ncc(-c2ncnc3ccccc23)cc1O [Compound 92] cannot be ordered by EC50: > 0.1 µM for the first, > 0.1 µM for the second.

Compared with CC(C)c1c(O)cc(-c2cccc3ncccc23)cc1O [Compound 20], CC(C)c1c(O)cc(-c2ccc3ncccc3c2F)cc1O [Compound 10] is lower in EC50: > 0.1 µM for the first, 0.0334 µM for the second. The second is the more potent here.

CC(C)c1c(O)cc(-c2cccc3ccc(C(=O)O)nc23)cc1O [Compound 25] and CC(C)c1ncc(-c2cccc3ccc(C(=O)O)nc23)cc1O [Compound 76] cannot be ordered by EC50: > 0.1 µM for the first, > 0.1 µM for the second.

CC(C)c1ncc(/C=C/c2ccccn2)cc1O [Compound 136] and CC(C)c1ncc(/C=C/c2ccccc2)cc1N [Compound 117, 2-isopropyl-5-[(E)-2-phenylethenyl]pyridin-3-amine] cannot be ordered by EC50: > 0.1 µM for the first, > 0.1 µM for the second.

Cc1ccnc2cc(-c3cnc(C(C)C)c(O)c3)ccc12 [Compound 73] and CC(C)c1ncc(-c2ccc3nccnc3c2)cc1O [Compound 91] cannot be ordered by EC50: > 0.1 µM for the first, > 0.1 µM for the second.

COc1cc2ncccc2cc1-c1cc(O)c(C(C)C)c(O)c1 [Compound 21] and CC(C)c1c(O)cc(-c2cc3cccnc3cc2F)cc1O [Compound 7] cannot be ordered by EC50: > 0.1 µM for the first, > 0.1 µM for the second.

Going from CC(C)c1c(O)cc(-c2cc(O)cc3cccnc23)cc1O [Compound 15] to CC(C)c1c(O)cc(-c2cccc3cc(F)c(O)nc23)cc1O [Compound 5], the EC50 falls from > 0.1 µM to 0.0787 µM. The second is the more potent here.

CC(C)c1ncc(-c2nccc3cccnc23)cc1O [Compound 95] and CC(C)c1c(O)cc(-c2nccc3cccnc23)cc1O [Compound 44] cannot be ordered by EC50: > 0.1 µM for the first, > 0.1 µM for the second.

Cc1cnc2ccc(-c3cnc(C(C)C)c(O)c3)cc2c1 [Compound 77] and Cc1cnc2ccc(-c3cc(O)c(C(C)C)c(O)c3)cc2c1 [Compound 26] cannot be ordered by EC50: > 0.1 µM for the first, > 0.1 µM for the second.

CC(C)c1ncc(-c2cnc3c(F)cc(N)cc3c2)cc1O [Compound 53] and CC(C)c1c(O)cc(-c2cnc3c(F)cc(N)cc3c2)cc1O [Compound 2] cannot be ordered by EC50: > 0.1 µM for the first, > 0.1 µM for the second.

CC(C)c1c(O)cc(-c2c(Cl)cc3c(O)ncnc3c2F)cc1O [Compound 38] and CC(C)c1ncc(-c2c(Cl)cc3c(O)ncnc3c2F)cc1O [Compound 89] cannot be ordered by EC50: > 0.1 µM for the first, > 0.1 µM for the second.

CC(C)c1c(O)cc(-c2ccnc3c(Cl)cccc23)cc1O [Compound 17] and CC(C)c1ncc(-c2ccnc3c(Cl)cccc23)cc1O [Compound 68] cannot be ordered by EC50: > 0.1 µM for the first, > 0.1 µM for the second.

Going from CC(C)c1c(O)cc(-c2cnc3c(C(F)(F)F)cccc3c2)cc1O [Compound 51] to CC(C)c1c(O)cc(-c2cnc3c(F)c(F)ccc3c2)cc1O [Compound 45], the EC50 falls from 0.09 µM to 0.0389 µM (2.3-fold).

CC(C)c1ncc(-c2cc(F)c3cnc(N)nc3c2)cc1O [Compound 90] and CC(C)c1ncc(-c2cnc3c(F)c(F)ccc3c2)cc1O [Compound 96] cannot be ordered by EC50: > 0.1 µM for the first, > 0.1 µM for the second.

CC(C)c1ncc(-c2cc(F)c3ncccc3c2F)cc1O [Compound 63] and CC(C)c1ncc(-c2ccnc3ccc(F)cc23)cc1O [Compound 55] cannot be ordered by EC50: > 0.1 µM for the first, > 0.1 µM for the second.

CC(C)c1c(O)cc(-c2ccc(F)c3ccc(C(F)(F)F)nc23)cc1O [Compound 13] and CC(C)c1c(O)cc(-c2cc3cnccc3cc2F)cc1O [Compound 34] cannot be ordered by EC50: > 0.1 µM for the first, > 0.1 µM for the second.

CC(C)c1ncc(-c2cnc3ccccc3c2)cc1N [Compound 120, 2-isopropyl-5-(quinolin-3-yl) pyridin-3-amine] and CC(C)c1c(O)cc(-c2cc(N)c3ccccc3n2)cc1O [Compound 24] cannot be ordered by EC50: > 0.1 µM for the first, > 0.1 µM for the second.

CC(C)c1ncc(-c2cc3cnccc3cc2F)cc1O [Compound 85] and CC(C)c1c(O)cc(-c2ccc3ncnc(N)c3c2)cc1O [Compound 42] cannot be ordered by EC50: > 0.1 µM for the first, > 0.1 µM for the second.

Reference: patent US20250136556A1, “NOVEL MODULATORS OF THE ARYL HYDROCARBON RECEPTOR AND METHODS OF USE THEREOF” (Allianthera (Suzhou) Biopharmaceutical Co., Ltd., priority 2021, published 2025)
